Data on 25 molecules can be found in patent US20230148214A1, “INDAZOLES AND AZAINDAZOLES AS LRRK2 INHIBITORS” (ESCAPE Bio, Inc., priority 2020, published 2023).

The target in experiment [1] is T1, LRRK2 WT (Homo sapiens, UniProt Q5S007).
T1 construct: purchased Life Technologies PR8604B
In words: LRRK2 Kinase Activity Assay (LanthaScreen TR-FRET), wild type. Format: biochemical. The note with it: recombinant wild type LRRK2, 25 μM ATP, 400 nM LRRKtide, 60 min. In short, it runs like this: (§1)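 Recombinant wild-type or G2019S LRRK2 incubated with fluorescein-labeled LRRKtide (ERM-based) peptide, ATP and serially diluted compound for 60 min at room temperature.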
On the technique in general: TR-FRET usually uses a lanthanide donor and a delayed reading to cut background.

The target in experiment [2] is T2, LRRK2 G2019S (Homo sapiens, UniProt Q5S007, G2019S).
T2 construct: purchased Life Technologies PV4881
T2 sequence (Q5S007 whole entry G2019S): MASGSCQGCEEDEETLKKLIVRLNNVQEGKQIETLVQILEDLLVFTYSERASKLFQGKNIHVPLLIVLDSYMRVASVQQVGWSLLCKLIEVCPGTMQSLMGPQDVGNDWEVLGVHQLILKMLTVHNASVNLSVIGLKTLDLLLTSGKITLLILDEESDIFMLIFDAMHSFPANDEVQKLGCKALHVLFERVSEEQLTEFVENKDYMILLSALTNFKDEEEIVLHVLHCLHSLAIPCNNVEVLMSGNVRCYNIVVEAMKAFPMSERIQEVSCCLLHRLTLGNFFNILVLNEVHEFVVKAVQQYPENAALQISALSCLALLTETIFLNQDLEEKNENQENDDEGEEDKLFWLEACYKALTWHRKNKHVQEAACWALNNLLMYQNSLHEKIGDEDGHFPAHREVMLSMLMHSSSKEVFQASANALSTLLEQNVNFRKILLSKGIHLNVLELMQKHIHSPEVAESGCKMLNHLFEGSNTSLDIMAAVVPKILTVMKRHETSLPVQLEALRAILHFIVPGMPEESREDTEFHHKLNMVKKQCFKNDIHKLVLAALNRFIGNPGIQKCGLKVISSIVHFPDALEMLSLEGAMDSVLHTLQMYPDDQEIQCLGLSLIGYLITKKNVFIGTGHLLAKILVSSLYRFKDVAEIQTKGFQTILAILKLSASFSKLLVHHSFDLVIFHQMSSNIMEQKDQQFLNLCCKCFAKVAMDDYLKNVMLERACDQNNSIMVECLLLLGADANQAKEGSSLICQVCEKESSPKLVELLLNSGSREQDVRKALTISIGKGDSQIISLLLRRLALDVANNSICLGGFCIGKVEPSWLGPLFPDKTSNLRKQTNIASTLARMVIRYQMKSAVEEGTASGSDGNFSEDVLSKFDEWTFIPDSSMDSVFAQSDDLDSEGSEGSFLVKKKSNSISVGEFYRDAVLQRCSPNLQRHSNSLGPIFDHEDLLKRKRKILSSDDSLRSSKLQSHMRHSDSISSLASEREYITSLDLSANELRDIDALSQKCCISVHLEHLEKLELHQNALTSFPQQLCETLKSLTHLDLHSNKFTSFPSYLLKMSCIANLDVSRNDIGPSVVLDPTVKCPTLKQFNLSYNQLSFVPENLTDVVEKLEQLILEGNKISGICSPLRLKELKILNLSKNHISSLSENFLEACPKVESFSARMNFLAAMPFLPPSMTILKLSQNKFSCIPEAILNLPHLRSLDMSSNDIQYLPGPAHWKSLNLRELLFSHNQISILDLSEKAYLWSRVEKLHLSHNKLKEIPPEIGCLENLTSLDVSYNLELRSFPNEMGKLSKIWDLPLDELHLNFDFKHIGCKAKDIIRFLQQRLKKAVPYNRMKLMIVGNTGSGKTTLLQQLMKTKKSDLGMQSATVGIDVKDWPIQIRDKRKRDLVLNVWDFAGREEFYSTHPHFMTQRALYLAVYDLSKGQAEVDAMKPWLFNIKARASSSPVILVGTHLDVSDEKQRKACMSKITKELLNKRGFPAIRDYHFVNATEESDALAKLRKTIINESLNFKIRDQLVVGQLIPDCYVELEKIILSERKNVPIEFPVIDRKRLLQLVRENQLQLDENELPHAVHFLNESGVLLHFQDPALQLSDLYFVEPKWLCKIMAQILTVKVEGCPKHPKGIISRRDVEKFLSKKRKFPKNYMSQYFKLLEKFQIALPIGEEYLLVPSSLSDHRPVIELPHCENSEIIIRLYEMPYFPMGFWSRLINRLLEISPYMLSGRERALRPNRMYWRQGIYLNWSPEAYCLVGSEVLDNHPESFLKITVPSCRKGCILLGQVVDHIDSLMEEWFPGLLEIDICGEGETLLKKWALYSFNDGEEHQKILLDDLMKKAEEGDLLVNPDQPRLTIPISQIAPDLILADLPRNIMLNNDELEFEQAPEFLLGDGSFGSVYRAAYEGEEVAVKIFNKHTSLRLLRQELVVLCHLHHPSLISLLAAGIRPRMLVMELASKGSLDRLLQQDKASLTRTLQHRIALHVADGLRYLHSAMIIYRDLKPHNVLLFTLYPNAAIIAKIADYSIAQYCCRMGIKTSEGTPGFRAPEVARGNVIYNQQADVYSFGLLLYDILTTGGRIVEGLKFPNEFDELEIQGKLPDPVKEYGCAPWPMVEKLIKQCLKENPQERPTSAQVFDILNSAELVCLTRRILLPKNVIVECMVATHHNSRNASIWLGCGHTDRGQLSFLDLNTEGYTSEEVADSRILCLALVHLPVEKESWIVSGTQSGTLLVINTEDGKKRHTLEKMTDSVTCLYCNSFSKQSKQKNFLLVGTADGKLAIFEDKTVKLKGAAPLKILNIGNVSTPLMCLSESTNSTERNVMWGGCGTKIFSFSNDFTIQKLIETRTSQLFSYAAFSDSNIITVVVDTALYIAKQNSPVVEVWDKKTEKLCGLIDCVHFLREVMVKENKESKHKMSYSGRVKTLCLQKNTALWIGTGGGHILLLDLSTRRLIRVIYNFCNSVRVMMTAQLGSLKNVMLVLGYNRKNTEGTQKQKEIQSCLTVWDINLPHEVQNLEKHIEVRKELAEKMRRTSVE
Kind of experiment: LRRK2 Kinase Activity Assay (LanthaScreen TR-FRET), G2019S. Format: biochemical. The conditions noted are these: recombinant G2019S-LRRK2, 25 μM ATP, 400 nM LRRKtide, 60 min; class symbols. The procedure, abridged: as §1

The structures appear in SMILES notation.

T1 sequence (Q5S007 whole entry): as the sequence (Q5S007 whole entry G2019S) above, with S2019G counted along it

With `N#Cc1ccc2c(c1)CC[C@H]2Oc1ccc2[nH]nc(-c3cnco3)c2n1` (single isomer, unassigned) [Example 31, enantiomer 1, 1-((3-(Oxazol-5-yl)-1H-pyrazolo[4,3-b]pyridin-5-yl)oxy)-2,3-dihydro-1H-indene-5-carbonitrile], the IC50 in experiment [1] (class symbols) and in experiment [2] was below 100 nM throughout.
Turning to `N#Cc1ccc2c(c1)CC[C@H]2Oc1ccc2[nH]nc(-c3cnco3)c2n1` (single isomer, unassigned) [Example 31, enantiomer 2, 1-((3-(Oxazol-5-yl)-1H-pyrazolo[4,3-b]pyridin-5-yl)oxy)-2,3-dihydro-1H-indene-5-carbonitrile], the results for the IC50 in experiment [1] (class symbols) and in experiment [2] were 100 to 1000 nM and below 100 nM, respectively.
Taken in the same sequence, the figures for `N#Cc1ccc2c(c1)CCC[C@H]2Oc1cc2c(-c3cnco3)n[nH]c2cn1` (single isomer, unassigned) [Example 32, enantiomer 1, 5-((3-(Oxazol-5-yl)-1H-pyrazolo[3,4-c]pyridin-5-yl)oxy)-5,6,7,8-tetrahydronaphthalene-2-carbonitrile] were 1000 to 10000 nM and 100 to 1000 nM.
`N#Cc1ccc2c(c1)CCC[C@H]2Oc1cc2c(-c3cnco3)n[nH]c2cn1` (single isomer, unassigned) [Example 32, enantiomer 2, 5-((3-(Oxazol-5-yl)-1H-pyrazolo[3,4-c]pyridin-5-yl)oxy)-5,6,7,8-tetrahydronaphthalene-2-carbonitrile]: the IC50 in experiment [1] (class symbols) and in experiment [2] was below 100 nM each time.
Turning to `N#Cc1ccc2c(c1)CCC[C@@H]2Nc1cc2c(-c3cnco3)n[nH]c2cn1` (single isomer, unassigned) [Example 33, enantiomer 1, 5-((3-(Oxazol-5-yl)-1H-pyrazolo[3,4-c]pyridin-5-yl)amino)-5,6,7,8-tetrahydronaphthalene-2-carbonitrile], the half-inhibitory concentration (IC50) in experiment [1] (class symbols) and in experiment [2] was below 100 nM in each case.
On to `N#Cc1ccc2c(c1)CCC[C@@H]2Nc1cc2c(-c3cnco3)n[nH]c2cn1` (single isomer, unassigned) [Example 33, enantiomer 2, 5-((3-(Oxazol-5-yl)-1H-pyrazolo[3,4-c]pyridin-5-yl)amino)-5,6,7,8-tetrahydronaphthalene-2-carbonitrile], for which the IC50 in experiment [1] (class symbols) and in experiment [2] was 100 to 1000 nM throughout.
On to `N#Cc1nc2c(o1)CCC[C@@H]2Nc1ccc2[nH]nc(-c3cnco3)c2c1` (single isomer, unassigned) [Example 35, enantiomer 1, 4-((3-(Oxazol-5-yl)-1H-indazol-5-yl)amino)-4,5,6,7-tetrahydrobenzo[d]oxazole-2-carbonitrile], for which the half-maximal inhibitory concentration (IC50) in experiment [1] (class symbols) and in experiment [2] was below 100 nM in each case.
Regarding `N#Cc1nc2c(o1)CCC[C@@H]2Nc1ccc2[nH]nc(-c3cnco3)c2c1` (single isomer, unassigned) [Example 35, enantiomer 2, 4-((3-(Oxazol-5-yl)-1H-indazol-5-yl)amino)-4,5,6,7-tetrahydrobenzo[d]oxazole-2-carbonitrile], the IC50 in experiment [1] (class symbols) and in experiment [2] was 100 to 1000 nM each time.
For the molecule `N#Cc1nc2c(o1)CCC2Nc1ccc2[nH]nc(-c3cnco3)c2c1` (single isomer, unassigned) [Example 36, enantiomer 1, 4-((3-(Oxazol-5-yl)-1H-indazol-5-yl)amino)-5,6-dihydro-4H-cyclopenta[d]oxazole-2-carbonitrile], the IC50 (commonly the concentration that inhibits the measured activity by half) in experiment [1] (class symbols) fell in the range of 1000 to 10000 nM; in experiment [2], 100 to 1000 nM.
Taken in the same sequence, the figures for `N#Cc1nc2c(o1)CCC2Nc1ccc2[nH]nc(-c3cnco3)c2c1` (single isomer, unassigned) [Example 36, enantiomer 2, 4-((3-(Oxazol-5-yl)-1H-indazol-5-yl)amino)-5,6-dihydro-4H-cyclopenta[d]oxazole-2-carbonitrile] were below 100 nM and below 100 nM.
In the case of `N#Cc1cccc2c1[C@@H](Oc1ccc3[nH]nc(-c4cnco4)c3c1)CC2` (single isomer, unassigned) [Example 37, enantiomer 1, 3-((3-(Oxazol-5-yl)-1H-indazol-5-yl)oxy)-2,3-dihydro-1H-indene-4-carbonitrile], the IC50 in experiment [1] (class symbols) and in experiment [2] was below 100 nM in each case.
Regarding `N#Cc1ccc2c(c1)CCC[C@@H]2Oc1ccc2[nH]nc(-c3ccnc(N4CCOCC4)c3)c2c1` (single isomer, unassigned) [Example 39, enantiomer 1, 5-((3-(2-Morpholinopyridin-4-yl)-1H-indazol-5-yl)oxy)-5,6,7,8-tetrahydronaphthalene-2-carbonitrile], the 50% inhibitory concentration (IC50) in experiment [1] (class symbols) and in experiment [2] was below 100 nM throughout.
For the molecule `COc1cc(-c2n[nH]c3ccc(N[C@H]4CCc5cc(C#N)ccc54)cc23)ccn1` (single isomer, unassigned) [Example 40, enantiomer 1, 1-((3-(2-Methoxypyridin-4-yl)-1H-indazol-5-yl)amino)-2,3-dihydro-1H-indene-5-carbonitrile], the IC50 in experiment [1] (class symbols) is 100 to 1000 nM; in experiment [2], below 100 nM.
The corresponding values for `N#Cc1cc2c(nn1)[C@@H](Oc1ccc3[nH]nc(-c4cnco4)c3c1)CC2` (single isomer, unassigned) [Example 41, enantiomer 1, 7-((3-(Oxazol-5-yl)-1H-indazol-5-yl)oxy)-6,7-dihydro-5H-cyclopenta[c]pyridazine-3-carbonitrile] are below 100 nM and below 100 nM.
Taken in the same sequence, the figures for `N#Cc1ccc2c(c1)CC(F)(F)[C@@H]2Nc1ccc2[nH]nc(-c3cnco3)c2c1` (single isomer, unassigned) [Example 42, enantiomer 1, 2,2-Difluoro-1-((3-(oxazol-5-yl)-1H-indazol-5-yl)amino)-2,3-dihydro-1H-indene-5-carbonitrile] were below 100 nM and below 100 nM.
Taken in the same sequence, the figures for `Cc1n[nH]c2ccc(N[C@H]3CCCc4cc(C#N)ccc43)cc12` (single isomer, unassigned) [Example 43, enantiomer 1, 5-((3-Methyl-1H-indazol-5-yl)amino)-5,6,7,8-tetrahydronaphthalene-2-carbonitrile] were 100 to 1000 nM and below 100 nM.
Consider `Cc1n[nH]c2ccc(N[C@H]3CCCc4cc(C#N)ccc43)cc12` (single isomer, unassigned) [Example 43, enantiomer 2, 5-((3-Methyl-1H-indazol-5-yl)amino)-5,6,7,8-tetrahydronaphthalene-2-carbonitrile], for which the half-inhibitory concentration (IC50) in experiment [1] (class symbols) fell in the range of 1000 to 10000 nM; in experiment [2], 100 to 1000 nM.
On to `N#Cc1ccc2c(c1)CCC[C@@H]2Nc1ccc2[nH]nc(-c3cncs3)c2c1` (single isomer, unassigned) [Example 44, 5-((3-(Thiazol-5-yl)-1H-indazol-5-yl)amino)-5,6,7,8-tetrahydronaphthalene-2-carbonitrile], for which the IC50 in experiment [1] (class symbols) and in experiment [2] was below 100 nM each time.
For the molecule `N#Cc1ccc2c(c1)CCC[C@@H]2Nc1ccc2[nH]nc(C3CCCCC3)c2c1` (single isomer, unassigned) [Example 45, 5-((3-Cyclohexyl-1H-indazol-5-yl)amino)-5,6,7,8-tetrahydronaphthalene-2-carbonitrile], the half-maximal inhibitory concentration (IC50) was above 10000 nM in experiment [1] (numeric bound) and 1000 to 10000 nM in experiment [2].
In the case of `Cn1cccc(-c2n[nH]c3ccc(N[C@H]4CCCc5cc(C#N)ccc54)cc23)c1=O` (single isomer, unassigned) [Example 46, 5-((3-(1-Methyl-2-oxo-1,2-dihydropyridin-3-yl)-1H-indazol-5-yl)amino)-5,6,7,8-tetrahydronaphthalene-2-carbonitrile], the IC50 in experiment [1] (numeric bound) is above 10000 nM; in experiment [2], 100 to 1000 nM.
Consider `N#Cc1nc2c(s1)[C@@H](Nc1ccc3[nH]nc(-c4cnco4)c3c1)CCC2` (single isomer, unassigned) [Example 47, enantiomer 1, 7-((3-(Oxazol-5-yl)-1H-indazol-5-yl)amino)-4,5,6,7-tetrahydrobenzo[d]thiazole-2-carbonitrile], for which the IC50 in experiment [1] (class symbols) and in experiment [2] was 100 to 1000 nM each time.
As to `N#Cc1nc2c(s1)[C@@H](Nc1ccc3[nH]nc(-c4cnco4)c3c1)CCC2` (single isomer, unassigned) [Example 47, enantiomer 2, 7-((3-(Oxazol-5-yl)-1H-indazol-5-yl)amino)-4,5,6,7-tetrahydrobenzo[d]thiazole-2-carbonitrile], the IC50 in experiment [1] (class symbols) and in experiment [2] was below 100 nM in each case.
On to `N#Cc1cnc2c(c1)C1CC1[C@@H]2Nc1ccc2[nH]nc(-c3cnco3)c2c1` (single isomer, unassigned) [Example 48, enantiomer 1, 6-((3-(Oxazol-5-yl)-1H-indazol-5-yl)amino)-4b,5,5a,6-tetrahydrocyclopropa[3,4]cyclopenta[1,2-b]pyridine-3-carbonitrile], for which the half-inhibitory concentration (IC50) in experiment [1] (class symbols) and in experiment [2] was below 100 nM throughout.
Regarding `N#Cc1cnc2c(c1)CCC[C@@H]2Nc1ccc2[nH]nc(-c3cnn(C(F)F)c3)c2c1` (single isomer, unassigned) [Example 49, enantiomer 1, 8-((3-(1-(Difluoromethyl)-1H-pyrazol-4-yl)-1H-indazol-5-yl)amino)-5,6,7,8-tetrahydroquinoline-3-carbonitrile], the concentration for half-maximal inhibition (IC50) in experiment [1] (class symbols) and in experiment [2] was below 100 nM in each case.
With `N#Cc1cnc2c(c1)CCC[C@@H]2Nc1ccc2[nH]nc(-c3cnn(C(F)F)c3)c2c1` (single isomer, unassigned) [Example 49, enantiomer 2, 8-((3-(1-(Difluoromethyl)-1H-pyrazol-4-yl)-1H-indazol-5-yl)amino)-5,6,7,8-tetrahydroquinoline-3-carbonitrile], the IC50 was 100 to 1000 nM in experiment [1] (class symbols) and below 100 nM in experiment [2].
